Data as given in patent US12342818B2, “Formulations and methods for controlling invasive amphibians” (priority 2019, dated 2025).

Test system: Adult cane toads (Rhinella marina)
Experiment: Cane toad spray trial (formulation sprayed on ventral and/or dorsal surface)
Format: in vivo
Details: for Mortality Rate / Avg. Time Until Breathing & Heart Beat Not Detected / Avg. Time to Unresponsive: 48 hrs trial
Method: Adult cane toads (Rhinella marina) (>[…] SUL=snout-urostyle length) were collected around Townsville one or two nights prior to the trials. The toads were kept in two Nally bins with all males in one, and all females in the other for ease of sorting. […]
• 1. The compound and carrier controls were prepared on day of testing. • 2. Toads were weighed, measured and placed in individual buckets and left for 10 minutes to settle. • 3. 1.5 ml of the formulation or carrier or water was delivered to the ventral and/or dorsal surface of each toad via a spray bottle (2×1 ml sprays and accounting for approximately 0.5 ml loss during spraying). • 4. Measurements of toad behaviour and heart rate were recorded at T=5, 10, 15, 20, 25, 30, 45, 60, 75, 90, 105, 120 minutes, plus 4-6 hours, 10-12 hours, 16-18 hours and 24 hours after spraying. If toads were still unconscious but not dead (if there was a heartbeat) within 24 hours, they were checked again at 48 hours. The following measurements were taken at each time interval: • Consciousness: Righting reflex was tested by flipping toads onto their backs and their ability to right themselves was recorded as “fast,” “slow,” or “unresponsive”. Observations were made of the palpebral reflex and involuntary muscular movement: Palpebral reflex was tested by gently tapping the palpebral area with the finger and observing eyelid movement. Involuntary muscular movement was tested via the withdrawal reflex, by grasping each limb distally and extending it. • Breathing/heart rate (did the toad appear to be breathing or was there a detectable heart beat); • Side effects (any other noticeable effects of the formulation such as twitching, distress or agitation, poison gland discharge, muscle rigidness, gasping, or ventral redness).
Even when no vital signs are detected externally during the experimental process, previous studies have shown that toads may appear dead and still have a heartbeat. At the completion of the trials, all animals were anaesthetised with a lethal dose MS222 (tricaine mesylate) then dissected to determine if the heart was still beating and to look for any signs of internal necrosis.

[1] = carrier ethanol, 84.2 g/L, 2 sprays ventral + dorsal, 6 toads
[2] = carrier ethanol, 168.36 g/L, 2 sprays ventral + dorsal, 6 toads
[3] = carrier isopropanol, 84.2 g/L, 2 sprays ventral + dorsal, 6 toads
[4] = carrier isopropanol, 126.3 g/L, 2 sprays dorsal, 6 toads
[5] = carrier isopropanol, 126.3 g/L, 2 sprays dorsal, 24 toads (repeat trial)
[6] = carrier isopropanol, 140 g/L, 2 sprays dorsal, 22 toads
[7] = carrier isopropanol, 168.36 g/L, 2 sprays ventral + dorsal, 6 toads

## OCCOc1ccccc1 [2-Phenoxyethanol]
Carrier ethanol, 21.05 g/L, 2 sprays ventral + dorsal, 6 toads
  Mortality Rate: 0%
[1]
  Avg. Time Until Breathing & Heart Beat Not Detected: 405 min
  Avg. Time to Unresponsive: 15 min
  Mortality Rate: 100%
[2]
  Avg. Time Until Breathing & Heart Beat Not Detected: 20 min
  Avg. Time to Unresponsive: 13.33 min
  Mortality Rate: 100%
[3]
  Avg. Time Until Breathing & Heart Beat Not Detected: 40.83 min
  Avg. Time to Unresponsive: 16.67 min
  Mortality Rate: 100%
[4]
  Avg. Time Until Breathing & Heart Beat Not Detected: 23 min
  Avg. Time to Unresponsive: 18.3 min
  Mortality Rate: 100%
[5]
  Avg. Time Until Breathing & Heart Beat Not Detected: 24.25 min
  Avg. Time to Unresponsive: 18 min
  Mortality Rate: 95.8%
[6]
  Avg. Time Until Breathing & Heart Beat Not Detected: 22.05 min
  Avg. Time to Unresponsive: 17.95 min
  Mortality Rate: 100%
[7]
  Avg. Time Until Breathing & Heart Beat Not Detected: 14.17 min
  Avg. Time to Unresponsive: 11.67 min
  Mortality Rate: 100%
Carrier propylene glycol, 168.36 g/L, 2 sprays ventral + dorsal, 6 toads
  Avg. Time to Unresponsive: 15.83 min
Carrier water, 168.36 g/L, 2 sprays ventral + dorsal, 6 toads
  Avg. Time to Unresponsive: 14.166 min
Compared with benzocaine, sodium nitrite, tricaine mesylate, sodium monesnsin
  effectiveness among potential toxicants tested (in different carriers): only real effective candidate
Concentration greater than 40 g/L in a carrier of either ethanol or isopropanol
  effectiveness as toad control: effective control
Formulations with water as a carrier
  effectiveness as toad control: not effective
